Assay results published in patent US20260216207A1, “7-CARBONYLSTAUROSPORINE DERIVATIVE, PREPARATION METHOD THEREFOR, AND USE THEREOF” (HANGZHOU KEXING BIOCHEM. CO., LTD., priority 2023, published 2026).
Entries after “also recorded” stand apart in the source; their conditions may differ.

Tests used:
Assay type in all cases: biochemical
[1] = target: PIM-1 kinase (Homo sapiens, UniProt P11309); experiment: HTRF KinEASE kinase assay, PIM-1 inhibitory activity
Description: Inhibitory activities against PIM-1, TRKA, TRKB, FLT3, PKCδ, PKCε, PKCη, PAK4, PLK1, ROCK2, and IKKβ kinases were all determined using an HTRF®KinEASE™ kinase assay kit based on a time-resolved fluorescence technology. 7-carbonylstaurosporine (7OSTA) and TP-3654 were used as positive controls, and 3 duplicate wells were set in parallel. Specific operation steps are as follows. • (1) A kinase buffer was formulated and then used to formulate compounds to be tested, a positive drug, a substrate, kinases, and adenosine triphosphate (ATP). • (2) 2 μL of the substrate, 2 μL of the kinases (the kinases were not added in a negative control group), 4 μL of the compounds to be tested or the positive drug (4 μL of a buffer was added in a positive control group, and 6 μL of a buffer was added in the negative control group), and 2 μL of the ATP were sequentially added into each well of a 384-well microplate, and the microplate was sealed with a membrane and then centrifuged for uniform mixing. • (3) According to different types of the kinases, incubation was performed in an incubator at 37° C. for a specific time. • (4) A detection solution was formulated using XL-665, an antibody, and a detection buffer, 10 µL of the detection solution was added into each well, the microplate was sealed with a membrane and then centrifuged for uniform mixing, and standing was performed at room temperature for 1 hour. • (5) Fluorescence value intensities F1 and F2 at wavelengths of 620 nm and 665 nm were measured using a multifunctional microplate tester, respectively. A signal ratio was calculated as F2/F1×10000, and then an IC50 value was calculated using Graphpad Prism 8 software.

[2] = target: TRKB (Homo sapiens, UniProt Q16620); experiment: HTRF KinEASE kinase assay, TRKB (kinase selectivity); details: HTRF KinEASE kit, 3 duplicate wells; read-out: TRKB IC50
Procedure: (§1) Inhibitory activities against PIM-1, TRKA, TRKB, FLT3, PKCδ, PKCε, PKCη, PAK4, PLK1, ROCK2, and IKKβ kinases were all determined using an HTRF®KinEASE™ kinase assay kit based on a time-resolved fluorescence technology. 7-carbonylstaurosporine (7OSTA) and TP-3654 were used as positive controls, and 3 duplicate wells were set in parallel. […] A signal ratio was calculated as F2/F1×10000, and then an IC50 value was calculated using Graphpad Prism 8 software.

[3] = target: T1, PKCε (Homo sapiens, UniProt Q02156); experiment: HTRF KinEASE kinase assay, PKCε (kinase selectivity); details: HTRF KinEASE kit, 3 duplicate wells; read-out: PKCε IC50
T1 sequence (Q02156 1-737): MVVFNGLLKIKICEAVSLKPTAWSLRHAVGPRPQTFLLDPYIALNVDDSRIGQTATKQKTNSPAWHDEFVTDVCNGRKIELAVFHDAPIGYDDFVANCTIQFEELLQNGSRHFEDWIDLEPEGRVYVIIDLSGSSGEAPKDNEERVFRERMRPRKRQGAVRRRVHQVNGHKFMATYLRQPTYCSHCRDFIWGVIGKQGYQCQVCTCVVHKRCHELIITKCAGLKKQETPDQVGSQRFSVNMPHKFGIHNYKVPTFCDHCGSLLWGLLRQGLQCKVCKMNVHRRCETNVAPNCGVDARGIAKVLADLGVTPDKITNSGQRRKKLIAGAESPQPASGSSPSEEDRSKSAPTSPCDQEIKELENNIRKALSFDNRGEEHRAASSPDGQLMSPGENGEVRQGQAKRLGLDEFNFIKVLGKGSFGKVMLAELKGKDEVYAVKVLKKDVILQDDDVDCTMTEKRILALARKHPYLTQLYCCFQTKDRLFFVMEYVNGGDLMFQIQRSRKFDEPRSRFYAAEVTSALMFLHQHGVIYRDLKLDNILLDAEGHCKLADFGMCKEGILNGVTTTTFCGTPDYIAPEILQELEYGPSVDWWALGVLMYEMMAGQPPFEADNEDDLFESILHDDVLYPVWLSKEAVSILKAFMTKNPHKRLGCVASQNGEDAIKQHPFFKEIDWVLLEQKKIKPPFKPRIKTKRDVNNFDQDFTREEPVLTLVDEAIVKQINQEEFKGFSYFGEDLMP
Procedure: as §1

[4] = target: PKCη (Homo sapiens, UniProt P24723); experiment: HTRF KinEASE kinase assay, PKCη (kinase selectivity); details: HTRF KinEASE kit, 3 duplicate wells; read-out: PKCη IC50
Procedure: as §1

Sequence of PIM-1 kinase (P11309 whole entry): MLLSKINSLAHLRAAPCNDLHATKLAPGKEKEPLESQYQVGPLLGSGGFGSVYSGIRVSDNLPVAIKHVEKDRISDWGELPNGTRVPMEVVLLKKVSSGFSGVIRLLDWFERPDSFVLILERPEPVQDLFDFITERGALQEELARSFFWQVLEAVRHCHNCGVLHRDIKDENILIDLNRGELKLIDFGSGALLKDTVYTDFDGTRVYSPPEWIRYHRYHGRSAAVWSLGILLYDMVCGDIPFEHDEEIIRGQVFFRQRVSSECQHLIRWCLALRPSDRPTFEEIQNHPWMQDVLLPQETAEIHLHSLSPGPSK
Sequence of TRKB (Q16620 32-822, species assumed): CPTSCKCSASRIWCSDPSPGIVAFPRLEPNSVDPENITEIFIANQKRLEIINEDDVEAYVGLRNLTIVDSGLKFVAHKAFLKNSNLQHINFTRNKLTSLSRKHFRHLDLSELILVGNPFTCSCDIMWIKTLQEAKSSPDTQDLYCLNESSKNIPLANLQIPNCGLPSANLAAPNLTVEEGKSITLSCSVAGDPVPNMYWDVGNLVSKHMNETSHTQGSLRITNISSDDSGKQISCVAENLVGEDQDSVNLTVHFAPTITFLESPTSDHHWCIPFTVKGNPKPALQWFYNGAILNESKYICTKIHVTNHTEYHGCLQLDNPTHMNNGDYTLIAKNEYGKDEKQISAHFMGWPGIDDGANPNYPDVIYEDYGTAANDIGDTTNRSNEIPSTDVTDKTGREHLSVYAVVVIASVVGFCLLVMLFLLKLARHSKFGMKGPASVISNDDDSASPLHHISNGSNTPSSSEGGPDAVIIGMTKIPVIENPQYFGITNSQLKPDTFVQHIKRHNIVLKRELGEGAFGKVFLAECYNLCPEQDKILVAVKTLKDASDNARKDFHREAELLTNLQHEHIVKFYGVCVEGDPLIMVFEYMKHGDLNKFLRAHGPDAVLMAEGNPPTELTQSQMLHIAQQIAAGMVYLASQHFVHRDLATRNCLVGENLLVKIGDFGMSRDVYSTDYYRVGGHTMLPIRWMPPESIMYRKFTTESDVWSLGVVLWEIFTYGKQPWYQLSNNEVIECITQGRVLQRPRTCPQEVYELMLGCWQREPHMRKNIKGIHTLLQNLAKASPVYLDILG
Sequence of PKCη (P24723 whole entry): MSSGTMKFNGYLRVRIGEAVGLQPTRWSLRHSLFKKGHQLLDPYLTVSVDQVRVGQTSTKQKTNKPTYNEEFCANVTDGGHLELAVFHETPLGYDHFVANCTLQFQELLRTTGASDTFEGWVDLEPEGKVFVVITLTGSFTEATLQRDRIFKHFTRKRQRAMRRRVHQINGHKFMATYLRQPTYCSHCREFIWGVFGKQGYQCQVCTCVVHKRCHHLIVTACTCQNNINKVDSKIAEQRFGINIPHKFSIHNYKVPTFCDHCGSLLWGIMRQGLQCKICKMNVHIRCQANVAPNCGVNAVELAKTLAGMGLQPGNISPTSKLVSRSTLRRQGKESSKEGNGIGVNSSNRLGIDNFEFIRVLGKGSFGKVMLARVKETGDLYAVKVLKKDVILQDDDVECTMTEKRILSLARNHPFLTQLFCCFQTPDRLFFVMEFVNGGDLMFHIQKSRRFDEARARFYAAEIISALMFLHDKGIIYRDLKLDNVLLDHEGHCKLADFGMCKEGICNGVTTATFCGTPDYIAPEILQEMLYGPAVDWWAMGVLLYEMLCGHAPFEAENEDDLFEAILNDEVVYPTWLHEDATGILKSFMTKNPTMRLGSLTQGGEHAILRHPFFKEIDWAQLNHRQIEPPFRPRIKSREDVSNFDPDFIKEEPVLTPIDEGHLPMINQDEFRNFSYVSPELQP

CO[C@@H]1[C@H](N(C)C(=O)CCC(=O)NO)C[C@H]2O[C@]1(C)n1c3ccccc3c3c4c(c5c6ccccc6n2c5c31)C(=O)NC4=O [Compound 17]
IC50 ([1]; HTRF KinEASE kit, 3 duplicate wells, read-out: PIM-1 kinase inhibitory activity (IC50)): 0.0059 µM | selectivity for the PIM-1 kinase (in words) ([1]; versus TRKA, TRKB, FLT3, PKCδ, PKCε, PKCη, PAK4, PLK1, ROCK2, IKKβ): excellent selective inhibitory effect on the PIM-1 kinase; also recorded: excellent selective inhibition ability against the PIM-1 kinase | IC50 [2]: 0.0136 µM | IC50 [3]: 0.069 µM | IC50 [4]: 0.0732 µM
